Entries after “also recorded” stand apart in the source; their conditions may differ.
Experiments:
K14 mice [1] = test: Brain GluCer and GluSph levels in K14 mouse model of type 2 Gaucher disease; format: in vivo
Experimental: Newborn mice received daily 5 mg/kg intraperitoneal injections of Quinuclidin-3-yl(2-(4′-fluoro-[1, l′-biphenyl]-3-yl)propan-2-yl)carbamate (hereinafter “GZ 161”) in a volume of 10 μl/gram of body weight starting at postnatal day 4. K14 mice and wild type littermates were humanely sacrificed at postnatal day 10 (pre-symptomatic) and at day 14 (humane endpoint) to evaluate glycosphingolipid (GSL) levels. Mice received a 150 mg/kg dose of pentobarbital (Euthasol, Virbac Inc, Fort Worth, Tex.) and were transcardially perfused with cold 0.9% NaCl solution. Brains were dissected and divided; one hemisphere was used for GSL analysis and the other was fixed in 4% paraformaldehyde for 96 hours and processed for histology.
(§1) Quantitative sphingolipid analysis was performed by liquid chromatography and tandem mass spectrometry (LC/MS/MS) as previously described in Merrill et al., Methods 36: 207-224 (2005). Briefly, 10 μl of brain tissue homogenate (tissue weight/water:100 mg/ml) was extracted with 1.00 ml of an organic solvent mixture (97% acetonitrile, 2% methanol, and 1% acetic acid, v/v) and vortexed vigorously for 10 min. Extracted sphingolipids (GluCer and GluSph) were directly separated by hydrophilic liquid chromatography (Atlantis HILIC column, Waters Corp.) and analyzed by triple quadrupole tandem mass spectrometry (API 4000, Applied Biosystems/MDS SCIEX) and compared with sphingolipid standards (Matreya, LLC; Pleasant Gap, Pa.)

K14 mice [2] = test: Brain histopathology (CD68, F4/80, GFAP staining) in K14 mice; format: in vivo, mouse; conditions: daily IP from P4, staining at P10, vs vehicle
Experimental: After genotype confirmation, animals were humanely sacrificed at 10 days of age, At this age K14 mice are asymptomatic. Mice received an intraperitoneal injection of 150 mg/kg sodium pentobarbital ((Euthasol, Virbac Inc, Fort Worth, Tex.) and were perfused by an intracardial infusion of chilled 0.9% sodium chloride. Brains were removed and post fixed in 4% paraformaldehyde for 72 hours. Tissue was transferred to PBS and paraffin embedded. Sagital sections 5 μm thick were cut and stained as described below. Gliosis and the presence of cells of the macrophage lineage were evaluated by means of glial fibrillary acidic protein staining and expression of CD68 and F4/80 pan-macrophage markers using the Leica Bond Max Immunostainer system (Leica Microsystems, Wetzlar, Germany).
GFAP staining: Paraffin sections were placed on mounting slides and processed using the Bond Polymer Refine IHC system (Leica Microsystems, Wetlzar, Germany) blocked for 10 minutes in serum-free protein block (Dako systems, Glostrup, Denmark), incubated for 30 minutes in a 1:1500 dilution of primary anti-GFAP antibody in Dako antibody diluent (Dako, Glostrup, Denmark), and stained using the Bond Polymer Refine detection kit (Leica Microsystems, Wetzlar, Germany). […]
For each staining technique exposure-matched digital images were obtained from similar brain regions of each experimental group using the Aperio ScanScope XT system (Aperio Technologies, Vista, Calif.). Stained slides were digitalized in high resolution and six areas of interest were highlighted in each slide and analyzed independently by histomorphometry. Positively stained area and nuclei were determined and quantitative data were analyzed by a one-way analysis of variance followed by Tukey's multiple comparison test using the Graph Pad Prism V 4.0 (GraphPad Software, San Diego, Calif.). […]

K14 mice [3] = test: Survival of K14 mice; format: in vivo, mouse; conditions: GZ 161 5 mg/kg IP daily from P4, combination: plus ICV rhGC at P1, 2, 3
Experimental: (§2) To determine if further benefits could be achieved by prenatal exposure to GZ 161, a subset of pregnant K14 females received GZ 161 in food using a formulation calculated to provide 20 mg/kg/day during the final 5-7 days of gestation. Females receiving GZ 161 were switched to standard diet after delivery and the pups received daily IP injections of GZ 161 at a dose of 5 mg/kg (10 μl per gram of body weight) starting at P 1. A set of WT pups born to females receiving the drug or standard formula was sacrificed immediately after birth to determine whether in utero exposure to GZ 161 could reduce brain GSL levels.
An animal model of neuropathic Gaucher disease (nGD) identified as K14 were cryoanesthesized and received 2 μl bilateral intracerebroventricular (ICV) injections of either rhGC at 2 mg/ml or vehicle as previously described. (Cabrera-Salazar et al. (2010)) The injected pups were monitored for recovery and returned to the mother following the procedure.
K14 mice received daily intraperitoneal injections of GZ 161 at a dose of 5 mg/kg of body weight as described above. A separate cohort of animals also received ICV injections of GC at postnatal days 1, 2 and 3 followed by daily IP injections of GZ 161. […] All animals were monitored daily for the development of neurological complications. […] This time point was recorded as end of life and analyzed using Kaplan-Meier plots. […]

WT mice = test: In utero exposure: brain GluCer in newborn WT mice; format: in vivo, mouse
Experimental: as §2, §1
Values shown correspond to means and error bars represent standard error of the mean. Comparisons between groups were analyzed by a one-way analysis of variance followed by Tukey's multiple comparison test. Comparison of substrate reduction in utero was analyzed by the unpaired t test with Welch's correction. Kaplan-Meier survival curves were analyzed using the log-rank test equivalent to the Mantel-Haenszel test. All statistical analyses were performed using GraphPad Prism v4.0 (GraphPad Software, San Diego, Calif.). Differences between group means with p<0.05 were considered significant.

[4] = K14 mice, 5 mg/kg IP daily from P4, brains analyzed at P10
[5] = daily IP, compared to vehicle-treated K14 mice at the humane endpoint (14-15 days of age)

Compound: CC(C)(NC(=O)OC1CN2CCC1CC2)c1cccc(-c2ccc(F)cc2)c1 (stereo not shown) [GZ 161, Quinuclidin-3-yl(2-(4′-fluoro-[1,1′-biphenyl]-3-yl)propan-2-yl)carbamate]
- brain GluCer level reduction (K14 mice [1]; [4]): ~70%
- brain GluSph level reduction (K14 mice [1]; [4]): ~60%
- brain GluCer level reduction (K14 mice [1]; [5]): > 60%
- brain GluSph level reduction (K14 mice [1]; [5]): > 60%
- symptom status of treated K14 mice (K14 mice [1]; daily IP, time point of brain analysis): asymptomatic
- crossing the blood brain barrier (K14 mice [1]; inferred from reduction of brain glycosphingolipids after systemic (IP) administration): capable of crossing the blood brain barrier
- CD68+ cells in brain (hippocampus, thalamus, brainstem, cerebellum) (K14 mice [2]): reduces the numbers of CD68+ cells in all of these locations; also recorded: significant reductions the CD68+ cells in all brain regions
- F4/80+ cells in brain (K14 mice [2]): reduced the numbers of F4/80+ cells in the thalamus and brainstem, but had marginal effects in other brain regions; also recorded: significant reductions the F4/80+ cells in the thalamus and brainstem
- GFAP staining (gliosis) in brain (K14 mice [2]): decreased GFAP staining in the hippocampus and cerebellum; also recorded: significant reductions the GFAP+ cells in the hippocampus and cerebellum
- median lifespan (K14 mice [3]): 18 days
- decrease in GluCer levels in the newborn mouse brain (P0) (WT mice; WT dams treated, 20 mg/kg/day in food): ~5 fold
- crossing the blood/placental barrier (WT mice; inferred from reduced GluCer in newborn brain after dosing pregnant WT mice): appears to cross the blood/placental barrier
- GluCer load in whole brain homogenates at birth (P0) (WT mice; pregnant WT mice, 20 mg/kg/day in food): reduces the GluCer load

— patent US9126993B2, “Glucosylceramide synthase inhibitors” (GENZYME CORPORATION, priority 2011, dated 2015)
